From paper PMC10882719 (Frontiers in Neuroscience, 2024)
Like-named read-outs stand apart in the source and are kept apart here.

Tests used:
Assay type in all cases: cell-based
168 GPCRs [1] = biological target: T1, 168 GPCRs (Homo sapiens, UniProt P32248)
T1 construct: host or cells: PathHunter cell lines
T1 sequence (P32248 25-378): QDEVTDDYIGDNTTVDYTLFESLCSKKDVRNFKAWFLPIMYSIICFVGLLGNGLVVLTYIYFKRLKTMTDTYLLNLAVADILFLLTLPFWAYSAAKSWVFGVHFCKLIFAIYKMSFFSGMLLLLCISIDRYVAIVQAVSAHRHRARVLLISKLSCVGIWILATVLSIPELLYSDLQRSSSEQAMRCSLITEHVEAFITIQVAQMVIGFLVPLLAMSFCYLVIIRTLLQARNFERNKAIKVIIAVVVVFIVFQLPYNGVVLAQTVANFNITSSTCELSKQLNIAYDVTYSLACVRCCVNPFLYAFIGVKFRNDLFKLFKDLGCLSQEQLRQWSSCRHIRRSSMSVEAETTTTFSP

168 GPCRs [2] = biological target: T2, 168 GPCRs (Homo sapiens, UniProt P21917)
T2 construct: host or cells: PathHunter cell lines
T2 sequence (P21917 1-419): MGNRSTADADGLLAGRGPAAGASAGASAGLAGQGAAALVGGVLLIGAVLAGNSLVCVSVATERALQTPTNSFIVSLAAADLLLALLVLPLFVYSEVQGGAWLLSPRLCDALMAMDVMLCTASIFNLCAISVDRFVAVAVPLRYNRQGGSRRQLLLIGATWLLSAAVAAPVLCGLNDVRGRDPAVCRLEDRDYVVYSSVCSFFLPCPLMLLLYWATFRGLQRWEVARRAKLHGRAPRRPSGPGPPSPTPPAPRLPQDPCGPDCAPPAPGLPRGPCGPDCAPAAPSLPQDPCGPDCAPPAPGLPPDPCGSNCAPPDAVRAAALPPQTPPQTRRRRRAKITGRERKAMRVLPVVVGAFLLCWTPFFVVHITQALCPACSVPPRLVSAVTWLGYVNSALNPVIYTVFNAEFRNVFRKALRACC

168 GPCRs [3] = biological target: T3, 168 GPCRs (Homo sapiens, UniProt P43088); details: PTGFR
T3 construct: host or cells: PathHunter cell lines
T3 sequence (P43088 whole entry): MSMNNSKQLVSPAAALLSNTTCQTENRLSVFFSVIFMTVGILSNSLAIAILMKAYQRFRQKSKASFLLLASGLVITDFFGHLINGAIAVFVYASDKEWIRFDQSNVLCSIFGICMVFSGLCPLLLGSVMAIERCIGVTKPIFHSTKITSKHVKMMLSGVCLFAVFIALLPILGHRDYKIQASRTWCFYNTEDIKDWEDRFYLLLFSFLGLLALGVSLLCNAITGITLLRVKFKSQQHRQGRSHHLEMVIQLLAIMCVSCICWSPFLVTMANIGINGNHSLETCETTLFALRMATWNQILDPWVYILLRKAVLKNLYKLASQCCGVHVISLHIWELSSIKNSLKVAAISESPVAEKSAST

168 GPCRs [4] = biological target: T4, 168 GPCRs (Homo sapiens, UniProt Q9HBW0)
T4 construct: host or cells: PathHunter cell lines
T4 sequence (Q9HBW0 whole entry): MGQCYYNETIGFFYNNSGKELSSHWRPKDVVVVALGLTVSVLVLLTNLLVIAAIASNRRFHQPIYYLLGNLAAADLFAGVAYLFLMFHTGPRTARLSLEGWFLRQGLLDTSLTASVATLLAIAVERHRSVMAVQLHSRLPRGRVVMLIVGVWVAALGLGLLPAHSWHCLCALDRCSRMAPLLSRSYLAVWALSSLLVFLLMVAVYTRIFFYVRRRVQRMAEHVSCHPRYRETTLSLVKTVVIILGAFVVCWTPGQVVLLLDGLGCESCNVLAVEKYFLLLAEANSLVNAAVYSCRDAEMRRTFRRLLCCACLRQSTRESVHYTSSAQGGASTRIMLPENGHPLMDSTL

168 GPCRs [5] = biological target: T5, 168 GPCRs (Homo sapiens, UniProt P30988)
T5 construct: host or cells: PathHunter cell lines
T5 sequence (P30988 25-474): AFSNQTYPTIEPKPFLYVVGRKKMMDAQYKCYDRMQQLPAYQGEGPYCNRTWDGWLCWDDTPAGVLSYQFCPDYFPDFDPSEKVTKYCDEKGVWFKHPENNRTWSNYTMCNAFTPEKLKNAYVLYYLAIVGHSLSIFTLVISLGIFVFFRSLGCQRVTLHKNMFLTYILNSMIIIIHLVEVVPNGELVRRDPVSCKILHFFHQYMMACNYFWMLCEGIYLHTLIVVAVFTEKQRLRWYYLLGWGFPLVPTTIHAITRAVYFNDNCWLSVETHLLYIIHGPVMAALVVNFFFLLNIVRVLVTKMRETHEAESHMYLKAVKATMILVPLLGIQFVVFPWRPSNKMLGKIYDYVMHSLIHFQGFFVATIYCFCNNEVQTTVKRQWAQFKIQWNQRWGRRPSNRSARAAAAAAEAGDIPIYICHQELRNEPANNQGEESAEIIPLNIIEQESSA

168 GPCRs [6] = biological target: T6, 168 GPCRs (Homo sapiens, UniProt P08173)
T6 construct: host or cells: PathHunter cell lines
T6 sequence (P08173 1-479): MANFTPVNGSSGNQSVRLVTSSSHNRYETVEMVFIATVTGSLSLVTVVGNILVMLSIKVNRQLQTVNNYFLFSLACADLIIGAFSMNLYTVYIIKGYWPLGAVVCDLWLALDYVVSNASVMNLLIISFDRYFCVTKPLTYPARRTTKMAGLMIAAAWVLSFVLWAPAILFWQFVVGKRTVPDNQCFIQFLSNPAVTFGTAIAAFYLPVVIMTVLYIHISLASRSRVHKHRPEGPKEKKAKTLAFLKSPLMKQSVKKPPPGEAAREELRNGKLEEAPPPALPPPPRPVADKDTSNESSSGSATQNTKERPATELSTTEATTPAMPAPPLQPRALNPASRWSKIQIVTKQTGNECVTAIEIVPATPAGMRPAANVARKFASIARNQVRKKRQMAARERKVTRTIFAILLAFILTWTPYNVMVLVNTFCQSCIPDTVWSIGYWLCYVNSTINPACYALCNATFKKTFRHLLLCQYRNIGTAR

| SMILES | % Agonist Activity (168 GPCRs [1]; CCR7, 1 uM) [%] | % Antagonist Activity (168 GPCRs [1]; CCR7, 1 uM) [%] | % Agonist Activity (168 GPCRs [1]; CCR7, 10 uM) [%] | % Antagonist Activity (168 GPCRs [1]; CCR7, 10 uM) [%] | % Agonist Activity (168 GPCRs [2]; DRD4, 1 uM) [%] | % Antagonist Activity (168 GPCRs [2]; DRD4, 1 uM) [%] | % Agonist Activity (168 GPCRs [2]; DRD4, 10 uM) [%] | % Antagonist Activity (168 GPCRs [2]; DRD4, 10 uM) [%] | % Agonist Activity (168 GPCRs [3]; Conc 1 uM) [%] | % Antagonist Activity (168 GPCRs [3]; Conc 1 uM) [%] | % Agonist Activity (168 GPCRs [3]; Conc 10 uM) [%] | % Antagonist Activity (168 GPCRs [3]; Conc 10 uM) [%] | % Agonist Activity (168 GPCRs [4]; EDG4, 1 uM) [%] | % Antagonist Activity (168 GPCRs [4]; EDG4, 1 uM) [%] | % Agonist Activity (168 GPCRs [4]; EDG4, 10 uM) [%] | % Antagonist Activity (168 GPCRs [4]; EDG4, 10 uM) [%] | % Agonist Activity (168 GPCRs [5]; CALCR, 1 uM) [%] | % Antagonist Activity (168 GPCRs [5]; CALCR, 1 uM) [%] | % Agonist Activity (168 GPCRs [5]; CALCR, 10 uM) [%] | % Antagonist Activity (168 GPCRs [5]; CALCR, 10 uM) [%] | also measured |
| --- | --- | --- | --- | --- | --- | --- | --- | --- | --- | --- | --- | --- | --- | --- | --- | --- | --- | --- | --- | --- | --- |
| CNC(C)Cc1ccc2c(c1)OCO2 (stereo not shown) [MDMA, 3,4-Methylenedioxy methamphetamine, reference compound] | 1.9 | 1.5 | 2.6 | 6.8 | -0.7 | 14.9 | -0.1 | 7.7 | -1.5 | -1.5 | -0.4 | 7.8 | 1.5 | 7.5 | 2.2 | 10.2 | -3.5 | -8.1 | -2.4 | 6.8 | % Agonist Activity (168 GPCRs [5]; CALCR-RAMP2, 1 uM): -0.3%; % Antagonist Activity (168 GPCRs [5]; CALCR-RAMP2, 1 uM): 12.8%; % Agonist Activity (168 GPCRs [5]; CALCR-RAMP2, 10 uM): 2.9%; % Antagonist Activity (168 GPCRs [5]; CALCR-RAMP2, 10 uM): 15.7%; % Agonist Activity (168 GPCRs [5]; CALCR-RAMP3, 1 uM): -18.3%; % Antagonist Activity (168 GPCRs [5]; CALCR-RAMP3, 1 uM): -3.6%; % Agonist Activity (168 GPCRs [5]; CALCR-RAMP3, 10 uM): -1.4%; % Antagonist Activity (168 GPCRs [5]; CALCR-RAMP3, 10 uM): -1.3%; % Agonist Activity (168 GPCRs [6]; CHRM4, 1 uM): -1.8%; % Antagonist Activity (168 GPCRs [6]; CHRM4, 1 uM): 32.8%; % Agonist Activity (168 GPCRs [6]; CHRM4, 10 uM): -3.2%; % Antagonist Activity (168 GPCRs [6]; CHRM4, 10 uM): 26.3% |
| CNC(C)C(=O)c1ccc2c(c1)OCO2 (stereo not shown) [methylone] | -3.4 | -8.3 | -3.7 | -3.4 | -8 | 8.4 | -9.4 | 12.2 | 0.3 | 0.9 | -0.2 | 0 | -2.2 | -10.2 | -2.1 | -21 | -0.3 | 5.4 | -0.2 | -4.4 | % Agonist Activity (168 GPCRs [5]; CALCR-RAMP2, 1 uM): 0.9%; % Antagonist Activity (168 GPCRs [5]; CALCR-RAMP2, 1 uM): -10.6%; % Agonist Activity (168 GPCRs [5]; CALCR-RAMP2, 10 uM): 1.6%; % Antagonist Activity (168 GPCRs [5]; CALCR-RAMP2, 10 uM): -19.6%; % Agonist Activity (168 GPCRs [5]; CALCR-RAMP3, 1 uM): 7.9%; % Antagonist Activity (168 GPCRs [5]; CALCR-RAMP3, 1 uM): -8.9%; % Agonist Activity (168 GPCRs [5]; CALCR-RAMP3, 10 uM): 7.1%; % Antagonist Activity (168 GPCRs [5]; CALCR-RAMP3, 10 uM): -3.3%; % Agonist Activity (168 GPCRs [6]; CHRM4, 1 uM): -5.8%; % Antagonist Activity (168 GPCRs [6]; CHRM4, 1 uM): 10.2%; % Agonist Activity (168 GPCRs [6]; CHRM4, 10 uM): -6.2%; % Antagonist Activity (168 GPCRs [6]; CHRM4, 10 uM): 6.7% |
